Results: paper PMC3949517 (Acta Crystallographica Section D: Biological Crystallography, 2014)
Values joined by “and” are separate entries in the source; they are usually repeats but may differ in a detail not shown here. Identical values can stand only once. Bridge positions count the residues as written; N and C are the ends. Ends that are not written are not given here. Peptide text beside a SMILES is read from it. * marks the point of attachment. Biotin = O=C1N[C@H]2[C@H](CS[C@H]2CCCCC(=O)*)N1

Key:
A17λ reactibody = assay type: binding, human; conditions: for Kd: read-out: Kd (BiaCore affinity constant)
A17κ reactibody = assay type: binding, human
[1] = system: A17κ reactibody (FabA17κ); assay type: biochemical, human
A17 reactibody = conditions: cited from earlier work
[2] = system: A17λ reactibody (FabA17λ); assay type: biochemical, human
scFvA17 = assay type: binding, human
[3] = system: recombinant Fab reactibodies (FabA17κ, FabA17λ); assay type: binding, human
[4] = system: A17λ reactibody (FabA17λ); assay type: biochemical, human; remark: listed apart in the source
[5] = system: A17κ reactibody (FabA17κ); assay type: biochemical, human; remark: listed apart in the source
[6] = system: A17κ reactibody (FabA17κ); assay type: biochemical, human; remark: listed apart in the source
[7] = biological target: T1, pep50L, linear (reduced) synthetic peptide 50 (synthetic (phage library-derived), cysteine pairing not given here); assay: SPR; Biacore T200, SA sensor chip; biotinylated synthetic peptides immobilised, antibodies injected at a range of concentrations, 10 µl/min, 298 K; association and dissociation 300 s each; 1:1 binding model, affinity-analysis option; conditions: both partners purified
T1 construct: also called pep50 linear form; source: synthetic peptide
T1 chain: GACRNPWGLTCGAAGAEK(Biotin)-NH2

[8] = biological target: T2, pep54L, linear (reduced) synthetic peptide 54 (synthetic (phage library-derived), cysteine pairing not given here); assay: as above; conditions: both partners purified
T2 construct: also called pep54 linear form; source: synthetic peptide
T2 chain: GACPNPWGLLCGAAGAEK(Biotin)-NH2

In the case of CC(C)C[C@@H]1NC(=O)CNC(=O)[C@H](Cc2c[nH]c3ccccc23)NC(=O)[C@@H]2CCCN2C(=O)[C@H](CC(N)=O)NC(=O)[C@H](CCCNC(=N)N)NC(=O)[C@@H](NC(=O)[C@H](C)NC(=O)CN)CSSC[C@@H](C(=O)NCC(=O)N[C@@H](C)C(=O)N[C@@H](C)C(=O)NCC(=O)N[C@@H](C)C(=O)N[C@@H](CCC(=O)O)C(=O)N[C@@H](CCCCNC(=O)CCCC[C@@H]2SC[C@@H]3NC(=O)N[C@@H]32)C(N)=O)NC(=O)[C@H]([C@@H](C)O)NC1=O [50C] (H-GACRNPWGLTCGAAGAEK(Biotin)-NH2; disulfide 3-11), the “affinity (in words)” value (A17λ reactibody) is reported as “high affinity”, the “affinity (in words)” value (A17κ reactibody) is reported as “high affinity” and the “binding activity of A17κ compared with A17λ (in words)” value (A17κ reactibody) is reported as “A17κ was more active in binding either the linear or the cyclic form of pep50”. The Kd (A17κ reactibody; read-out: Kd (BiaCore affinity constant)) was 0.9 µM.

In the case of CC(C)C[C@H](NC(=O)CNC(=O)[C@H](Cc1c[nH]c2ccccc12)NC(=O)[C@@H]1CCCN1C(=O)[C@H](CC(N)=O)NC(=O)[C@H](CCCNC(=N)N)NC(=O)[C@H](CS)NC(=O)[C@H](C)NC(=O)CN)C(=O)N[C@H](C(=O)N[C@@H](CS)C(=O)NCC(=O)N[C@@H](C)C(=O)N[C@@H](C)C(=O)NCC(=O)N[C@@H](C)C(=O)N[C@@H](CCC(=O)O)C(=O)N[C@@H](CCCCNC(=O)CCCC[C@@H]1SC[C@@H]2NC(=O)N[C@@H]21)C(N)=O)[C@@H](C)O [50L] (H-GACRNPWGLTCGAAGAEK(Biotin)-NH2), the “affinity (in words)” value (A17λ reactibody) is reported as “high affinity”, the Kd (A17λ reactibody) is reported as 2.3 µM and the “affinity (in words)” value (A17κ reactibody) is reported as “high affinity”. The “binding activity of A17κ compared with A17λ (in words)” value (A17κ reactibody) was “A17κ was more active in binding either the linear or the cyclic form of pep50”.

With CC(C)C[C@@H]1NC(=O)CNC(=O)[C@H](Cc2c[nH]c3ccccc23)NC(=O)[C@@H]2CCCN2C(=O)[C@H](CC(N)=O)NC(=O)[C@@H]2CCCN2C(=O)[C@@H](NC(=O)[C@H](C)NC(=O)CN)CSSC[C@@H](C(=O)NCC(=O)N[C@@H](C)C(=O)N[C@@H](C)C(=O)NCC(=O)N[C@@H](C)C(=O)N[C@@H](CCC(=O)O)C(=O)N[C@@H](CCCCNC(=O)CCCC[C@@H]2SC[C@@H]3NC(=O)N[C@@H]32)C(N)=O)NC(=O)[C@H](CC(C)C)NC1=O [54C] (H-GACPNPWGLLCGAAGAEK(Biotin)-NH2; disulfide 3-11) the “binding activity of A17λ compared with A17κ (in words)” value (A17λ reactibody) was “A17λ was more active than A17κ”.

CC(C)C[C@H](NC(=O)CNC(=O)[C@H](Cc1c[nH]c2ccccc12)NC(=O)[C@@H]1CCCN1C(=O)[C@H](CC(N)=O)NC(=O)[C@@H]1CCCN1C(=O)[C@H](CS)NC(=O)[C@H](C)NC(=O)CN)C(=O)N[C@@H](CC(C)C)C(=O)N[C@@H](CS)C(=O)NCC(=O)N[C@@H](C)C(=O)N[C@@H](C)C(=O)NCC(=O)N[C@@H](C)C(=O)N[C@@H](CCC(=O)O)C(=O)N[C@@H](CCCCNC(=O)CCCC[C@@H]1SC[C@@H]2NC(=O)N[C@@H]21)C(N)=O [54L] (H-GACPNPWGLLCGAAGAEK(Biotin)-NH2) showed a Kd (A17λ reactibody) of 18 µM.

In the case of CCOP(=O)(OCC)Oc1ccc([N+](=O)[O-])cc1 [paraoxon, O,O-Diethyl O-(4-nitrophenyl)phosphate], the “k2/KD, paraoxon” value [1] is listed as 1.15 ± 0.52 M–1 min–1, the “k2/Kd, paraoxon” value ([1]; pH 7.4) is listed as 1.2 0.5 M ^1min^1 and the “reaction with A17 reactibody (in words)” value (A17 reactibody) is listed as “hydrolyzing”. The “k2/KD, paraoxon” value [2] was 1.63 ± 0.65 M–1 min–1 and the “k2/Kd, paraoxon” value ([2]; pH 7.4) was 1.6 0.6 M ^1min^1.

In the case of “CPNPWGLLC (disulfide 1-9 (inferred)) [pep54]”, the “binding to scFvA17 (in words)” value (scFvA17) is reported as “specifically bind”, the “effect of phosphonylation of scFv on ELISA signals (in words)” value (scFvA17) is reported as “significantly enhanced the ELISA signals” and the “binding by recombinant Fab reactibodies (in words)” value [3] is reported as “capable of binding”. The “effect of phosphonylation of the Fabs on level of binding (in words)” value [3] was “reduced the level of binding”.

With “CRNPWGLTC (disulfide 1-9 (inferred)) [pep50]” the “binding to scFvA17 (in words)” value (scFvA17) was “specifically bind”, the “effect of phosphonylation of scFv on ELISA signals (in words)” value (scFvA17) was “significantly enhanced the ELISA signals” and the “binding by recombinant Fab reactibodies (in words)” value [3] was “capable of binding”. For the same molecule, the “effect of phosphonylation of the Fabs on level of binding (in words)” value [3] was “reduced the level of binding”.

With “p-nitrophenyl 8-methyl-8-azabicyclo[3.2.1]octylphenylphosphonate [phosphonate X]” the “Ea (activation-energy parameter), phosphonate X” value [4] was 11.4 0.5 kcalmol^1, the Kd ([4]; pH 7.4) was 110 µM and 145 µM and 170 µM and 130 µM and 180 µM and the “k2, phosphonate X” value ([4]; pH 7.4) was 0.28 0.02 min^1. For the same molecule, the “Ea (activation-energy parameter), phosphonate X” value [5] was 12.5 1.3 kcalmol^1, the Kd ([5]; pH 7.4) was 120 µM and 150 µM and 80 µM and 130 µM and the “k2, phosphonate X” value ([5]; pH 7.4) was 0.24 0.03 min^1. The “reaction with A17 reactibody (in words)” value (A17 reactibody) was “irreversibly binding” and the “rate of induced-fit stage, A17κ vs A17λ (in words)” value [6] was “induced-fit stage is more rapid in the κ variant”.

B1: FabA17λ (Fab of the A17 reactibody with the λ light-chain constant domain) (Fab, V domains shown)
VH: QVQLQESGPGLVKPSETLSLTCAVSGYSISSGYYWGWIRQPPGKGLEWIGSIYHSGSTYYNPSLKSRVTISVDTSKNQFSLKLSSVTAADTAVYYCAGLTQSSHNDANWGQGTLVTVSS
VL: QSVLTQPPSVSAAPGQKVTISCSGSSSNIGNNYVSWYQQLPGTAPKLLIYDNNKRPSGIPDRFSGSKSGTSATLGITGLQTGDEADYYCGTWDSSLNPVFGGGTKLTVL
notes: as the heavy chain of m1 (HCH: A17 VH, human CH1, hinge region); natural-type λ light chain: A17 VL (identical to the VL of m1) with the J2 segment and the constant region of human λ2 light chain; also called FabA17 λ variant; source: Pichia pastoris GS115, culture medium, purified (Talon, Mono Q, Superdex 75)
With B1 the Kd [7] was 2.3 µM and the Kd [8] was 18 µM.
